This experiment has as its system SMN protein. The experiment is described as follows: cellular SMN ELISA (SMN protein elevation). Type of experiment: cell-based. Conditions: myoblast cell line from SMNdelta7 mouse model, 24 hours treatment; for SMN activity Fold: fold activation over DMSO control. The protocol: A cellular SMN ELISA was used to measure the effects of low molecular weight compounds on SMN protein elevation. Cells from a myoblast cell line derived from the SMNdelta7 mouse model (kind gift from Steve Burden, NYU) were seeded into a 384-well plate at a density of 3000 cells/well and treated with compounds for 24 hours. ELISA capture plates were prepared by coating 384-well plates (Immulon 4HBX) with 0.5 ug/mL of anti-SMN mAb (BD Science, Catalog number 610647) at 4° C. overnight. The plates were washed 5 times with 110 uL of PBS-Tween (0.05% Tween-20, PBST), blocked with 100 uL of 1% BSA in PBST for 2 hours and washed (5 times) with 100 uL of PBST. After 24 hours of compound treatment cells were lysed in a modified RIPA-buffer, on ice for 1 hour. 20 uL of lysate and 20 uL of 1% BSA were then added to the ELISA capture plates and incubated at 4° C. overnight. Plates were washed (5 times) with PBST and then incubated with 1:100 dilution of primary rabbit anti-SMN polyclonal antibody (Santa cruz, Catalog number SC-15320) at room temperature for 1 hour and subsequently washed (5 times) with 110 uL of PBST. This was followed by addition of 1:100 Goat anti-Rabbit IgG-HRP linked (Cell Signaling, Catalog number 7074) secondary antibody for 1 hour. Plates were then washed with PBST and incubated with 40 uL TMB substrate (Cell Signaling, Catalog number 7004L) at room temperature for 1-10 minutes with shaking. The reaction was stopped by addition of 40 uL of stop solution (Cell signaling, Catalog number 7002L) and absorption was measured at 450 nm. Data was reported as fold activation over DMSO control, and EC50.
ELISA assay condition 1: compound concentration range 20 nM-10 uM; ELISA assay condition 2: compound concentration 100 pM-10 uM.
(In general: ELISA stands for enzyme-linked immunosorbent assay.)

The mark [1] stands for this setting: ELISA condition 2: compound concentration 100 pM-10 uM.
Where [2] appears, read: ELISA condition 1: compound concentration range 20 nM-10 uM.

These results are taken from US10195196B2, “1,4-disubstituted pyridazine analogs there of and methods for treating SMN-deficiency-related conditions” (NOVARTIS AG, priority 2012, dated 2019).

The term EC50 denotes the concentration that produces a half-maximal response.

For `Oc1cc(-n2cccn2)ccc1-c1ccc(N2CCNCC2)nn1` [Example 18-1, 2-(6-piperazin-1-yl-pyridazin-3-yl)-5-pyrazol-1-yl-phenol], under setting [1], a half-maximal response (EC50) required 296 nM and the “SMN activity Fold” value is recorded as 3.07 Fold.

`Oc1cc2ccccc2cc1-c1ccc(NC2CNC2)nn1` [Example 18-2, 3-[6-(azetidin-3-ylamino)-pyridazin-3-yl]-naphthalen-2-ol]: under setting [1], the concentration giving a half-maximal response (EC50) is 3230 nM and the “SMN activity Fold” value turned out to be 1.97 Fold.

Regarding `Oc1cc(-n2cccn2)ccc1-c1ccc(NC2CNC2)nn1` [Example 18-3, 2-[6-(azetidin-3-ylamino)-pyridazin-3-yl]-5-pyrazol-1-yl-phenol], under setting [2], the concentration for a half-maximal effect (EC50) came to 660 nM and the “SMN activity Fold” value was determined as 1.95 Fold.

Consider `CC1CN(c2ccc(-c3ccc(-n4cccn4)cc3O)nn2)CC(C)N1` (stereo not shown) [Example 18-4, 2-[6-(3,5-dimethyl-piperazin-1-yl)-pyridazin-3-yl]-5-pyrazol-1-yl-phenol], for which, under setting [1], the concentration giving a half-maximal response (EC50) was found to be 388 nM and the “SMN activity Fold” value amounted to 2.84 Fold.

As to `CN1CCC2(CCN(c3ccc(-c4ccc(-n5cccn5)cc4O)nn3)C2)C1` (stereo not shown) [Example 18-5, 2-[6-(7-methyl-2,7-diaza-spiro[4.4]non-2-yl)-pyridazin-3-yl]-5-pyrazol-1-yl-phenol], under setting [1], the concentration for a half-maximal effect (EC50) was 151 nM and the “SMN activity Fold” value is recorded as 2.66 Fold.

Turning to `Oc1cc(-n2cccn2)ccc1-c1ccc(N2CCCNCC2)nn1` [Example 18-6, 2-(6-[1,4]diazepan-1-yl-pyridazin-3-yl)-5-pyrazol-1-yl-phenol], under setting [1], the EC50 was 268 nM and the “SMN activity Fold” value was 2.54 Fold.

As to `OCCN1CCN(c2ccc(-c3ccc(-n4cccn4)cc3O)nn2)CC1` [Example 18-7, 2-{6-[4-(2-hydroxy-ethyl)-piperazin-1-yl]-pyridazin-3-yl}-5-pyrazol-1-yl-phenol], under setting [1], the half-maximal effective concentration (EC50) came out at 2660 nM and the “SMN activity Fold” value came to 2.67 Fold.

Take `Oc1cc(-n2cccn2)ccc1-c1ccc(N2CC3CNC(C3)C2)nn1` (stereo not shown) [Example 18-8, 2-[6-(3,6-diaza-bicyclo[3.2.1]oct-3-yl)-pyridazin-3-yl]-5-pyrazol-1-yl-phenol]: under setting [1], a half-maximal effect (EC50) was put at 983 nM and the “SMN activity Fold” value was 2.32 Fold.

Consider `Oc1cc(-n2cccn2)ccc1-c1ccc(N2CCC3(CC2)CNC3)nn1` [Example 18-9, 2-[6-(2,7-diaza-spiro[3.5]non-7-yl)-pyridazin-3-yl]-5-pyrazol-1-yl-phenol], for which, under setting [2], the EC50 was 1180 nM and the “SMN activity Fold” value is 1.93 Fold.

For `OCC1CN(c2ccc(-c3ccc(-n4cccn4)cc3O)nn2)CCN1` (stereo not shown) [Example 18-10, 2-[6-(3-hydroxy-methyl-piperazin-1-yl)-pyridazin-3-yl]-5-pyrazol-1-yl-phenol], under setting [1], the midpoint of the response, the EC50, lay at 386 nM and the “SMN activity Fold” value was determined as 2.55 Fold.

`Oc1cc(-n2cccn2)ccc1-c1ccc(N2CCC3(CCCN3)C2)nn1` (stereo not shown) [Example 18-11, 2-[6-(1,7-diaza-spiro[4.4]non-7-yl)-pyridazin-3-yl]-5-pyrazol-1-yl-phenol]: under setting [1], the half-maximal effective concentration (EC50) is 320 nM and the “SMN activity Fold” value is reported as 2.53 Fold.

In the case of `CC1(N)CCN(c2ccc(-c3ccc(-n4cccn4)cc3O)nn2)CC1` [Example 18-12, 2-[6-(4-amino-4-methyl-piperidin-1-yl)-pyridazin-3-yl]-5-pyrazol-1-yl-phenol], under setting [1], the midpoint of the response, the EC50, lay at 792 nM and the “SMN activity Fold” value came to 2.62 Fold.

For the molecule `CN(C)C1CCCN(c2ccc(-c3ccc(-n4cccn4)cc3O)nn2)C1` (stereo not shown) [Example 18-13, 2-[6-(3-dimethyl-amino-piperidin-1-yl)-pyridazin-3-yl]-5-pyrazol-1-yl-phenol], under setting [1], the concentration for a half-maximal effect (EC50) was determined as 1240 nM and the “SMN activity Fold” value was found to be 2.28 Fold.

In the case of `CN1C(C)(C)CC(Nc2ccc(-c3ccc(-n4cccn4)cc3O)nn2)CC1(C)C` [Example 18-14, 2-[6-(1,2,2,6,6-pentamethyl-piperidin-4-ylamino)-pyridazin-3-yl]-5-pyrazol-1-yl-phenol], under setting [2], the response was half-maximal at 17 nM (EC50) and the “SMN activity Fold” value amounted to 2.62 Fold.

Consider `CC1(C)CN(c2ccc(-c3ccc(-n4cccn4)cc3O)nn2)CCN1` [Example 18-15, 2-[6-(3,3-dimethyl-piperazin-1-yl)-pyridazin-3-yl]-5-pyrazol-1-yl-phenol], for which, under setting [1], a half-maximal effect (EC50) was put at 714 nM and the “SMN activity Fold” value is recorded as 2.30 Fold.

As to `OCCN1CCC2(CCN(c3ccc(-c4ccc(-n5cccn5)cc4O)nn3)C2)C1` (stereo not shown) [Example 18-16, 2-(6-(7-(2-hydroxyethyl)-2,7-diazaspiro[4.4]-nonan-2-yl)pyridazin-3-yl)-5-(1H-pyrazol-1-yl)phenol], under setting [1], the concentration giving a half-maximal response (EC50) is 227 nM and the “SMN activity Fold” value worked out at 3.25 Fold.

Consider `Oc1cc(-n2cccn2)ccc1-c1ccc(N2C[C@H]3CNC[C@H]3C2)nn1` [Example 18-17, 2-(6-((3aR,6aS)-hexahydropyrrolo[3,4-c]pyrrol-2(1H)-yl)pyridazin-3-yl)-5-(1H-pyrazol-1-yl)phenol], for which, under setting [1], the 50% effective concentration (EC50) worked out at 158 nM and the “SMN activity Fold” value is 2.85 Fold.

`Oc1ccc2cc(-c3ccc(N4CCNCC4)nn3)c(O)cc2c1` [Example 18-18, 3-(6-(piperazin-1-yl)pyridazin-3-yl)naphthalene-2,7-diol]: under setting [1], the concentration for a half-maximal effect (EC50) came to 56 nM and the “SMN activity Fold” value was 2.57 Fold.

For `Oc1cc(-n2cccn2)ccc1-c1ccc(C2=CCNCC2)nn1` [Example 19-1, 5-pyrazol-1-yl-2-[6-(1,2,3,6-tetrahydro-pyridin-4-yl)-pyridazin-3-yl]-phenol], under setting [1], it took 477 nM to reach a half-maximal effect (EC50) and the “SMN activity Fold” value came out at 2.77 Fold.

In the case of `Oc1cc(-n2cccn2)ccc1-c1ccc(C2CCNCC2)nn1` [Example 19-2, 2-(6-piperidin-4-yl-pyridazin-3-yl)-5-pyrazol-1-yl-phenol], under setting [1], the half-maximal effective concentration (EC50) came out at 402 nM and the “SMN activity Fold” value turned out to be 2.73 Fold.

Consider `Oc1cc2ccccc2cc1-c1ccc(C2=CCNCC2)nn1` [Example 19-3, 3-(6-(1,2,3,6-tetra-hydropyridin-4-yl)pyridazin-3-yl)naphthalen-2-ol], for which, under setting [1], the midpoint of the response, the EC50, lay at 155 nM and the “SMN activity Fold” value is 2.19 Fold.

Consider `Oc1ccc2cc(-c3ccc(C4=CCNCC4)nn3)c(O)cc2c1` [Example 19-4, 3-(6-(1,2,3,6-tetrahydropyridin-4-yl)pyridazin-3-yl)naphthalene-2,7-diol], for which, under setting [1], the EC50 came to 25 nM and the “SMN activity Fold” value stood at 2.47 Fold.

`CC1(C)C=C(c2ccc(-c3cc4ccc(O)cc4cc3O)nn2)CC(C)(C)N1` [Example 19-5, 3-(6-(2,2,6,6-tetramethyl-1,2,3,6-tetrahydropyridin-4-yl)pyridazin-3-yl)naphthalene-2,7-diol]: under setting [1], the midpoint of the response, the EC50, lay at 402 nM and the “SMN activity Fold” value is recorded as 2.58 Fold.

On to `CN1CC=C(c2ccc(-c3cc4ccc(O)cc4cc3O)nn2)CC1` [Example 19-6, 3-(6-(1-methyl-1,2,3,6-tetrahydropyridin-4-yl)pyridazin-3-yl)naphthalene-2,7-diol], for which, under setting [1], the response was half-maximal at 40 nM (EC50) and the “SMN activity Fold” value worked out at 2.33 Fold.

`Oc1ccc2cc(-c3ccc(C4CCNCC4)nn3)c(O)cc2c1` [Example 19-7, 3-(6-(piperidin-4-yl)pyridazin-3-yl)naphthalene-2,7-diol]: under setting [1], a half-maximal effect (EC50) was put at 37 nM and the “SMN activity Fold” value came out at 3.07 Fold.

For `CC1(C)CC(Oc2ccc(-c3cc4ccc(O)cc4cc3O)nn2)CC(C)(C)N1` [Example 20-1, 3-(6-((2,2,6,6-tetramethylpiperidin-4-yl)oxy)pyridazin-3-yl)naphthalene-2,7-diol], under setting [1], the concentration for a half-maximal effect (EC50) was 18 nM and the “SMN activity Fold” value was determined as 2.75 Fold.

For `CN(c1ccc(-c2cc3ccc(O)cc3cc2O)nn1)C1CC(C)(C)NC(C)(C)C1` [Example 20-2, 3-(6-(methyl(2,2,6,6-tetramethylpiperidin-4-yl)amino)pyridazin-3-yl)naphthalene-2,7-diol], under setting [1], the midpoint of the response, the EC50, lay at 4 nM and the “SMN activity Fold” value stood at 2.79 Fold.

For the molecule `CC1(C)CC(Nc2ccc(-c3cc4ccc(O)cc4cc3O)nn2)CC(C)(C)N1` [Example 20-3, 3-(6-((2,2,6,6-tetramethylpiperidin-4-yl)amino)pyridazin-3-yl)naphthalene-2,7-diol], under setting [1], the EC50 amounted to 8 nM and the “SMN activity Fold” value is 3.42 Fold.

As for `CN(c1ccc(-c2cc3ccc(OCCCNC(=O)OC(C)(C)C)cc3cc2O)nn1)C1CC(C)(C)NC(C)(C)C1` [Example 20-4, [3-(7-hydroxy-6-{6-[methyl-(2,2,6,6-tetramethyl-piperidin-4-yl)-amino]-pyridazin-3-yl}-naphthalen-2-yloxy)-propyl]-carbamic acid tert-butyl ester], under setting [2], the midpoint of the response, the EC50, lay at 310 nM and the “SMN activity Fold” value is reported as 2.32 Fold.
